# Experimental data reported in patent US11780841B2, “3,6-methano-1H-pyrrolo[3,2-b]pyridine and 3,6-methano-1H-pyrrolo[3,2-c]pyridine compounds and medicaments using same” (priority 2018, dated 2023).
# Tested on: recombinant rabies virus 1088 strain expressing Gaussia Luciferase (GLuc) (1088/GLuc)
# Format: cell-based
# Details: read-out: Anti-rabies activity
row,SMILES,IC50 [µM]
1,CC(C)CCN1CC2CC3(C(=O)NCc4ccc(Cl)cc4)N=CC2C1C3CC(C)C (stereo not shown) [IIF-103],5 to 10
2,CC(C)CCNC(=O)[C@]12NC[C@H]3C[C@H]1CN(Cc1ccccc1)[C@H]2[C@@H]3Cc1ccc(O)cc1 [IB-678],< 5
3,CC(C)CC[C@@H]1[C@H]2CN[C@@]3(C(=O)NCc4cccc5ccccc45)[C@@H](C2)CN(CC(N)=O)[C@@H]13 [IB-84],10 to 30
4,O=C(O)CCN1C[C@@H]2C[C@@H]3CN[C@]2(C(=O)NCc2ccc(F)cc2)[C@@H]1[C@@H]3Cc1ccccc1 [IB-394],10 to 30
5,CC(C)CCN1C[C@H]2C[C@]3(C(=O)NC(C)C)NC[C@H]2[C@H]1[C@H]3CCCNC(=N)N [IF-214],10 to 30
6,CC(C)CC[C@@H]1[C@H]2CN[C@@]3(C(=O)NCc4ccccc4)[C@@H](C2)CN(CCC(=O)O)[C@@H]13 [IB-694],10 to 30
7,NC(=O)CCNC(=O)[C@]12NC[C@H]3C[C@H]1CN(Cc1ccccc1)[C@H]2[C@@H]3Cc1ccccc1 [IB-734],10 to 30
8,O=C(NCCO)[C@]12NC[C@H]3C[C@H]1CN(CCc1ccccc1)[C@H]2[C@@H]3Cc1cccc2ccccc12 [IB-593],10 to 30
9,CC(C)CC[C@@H]1[C@@H]2[C@@H]3CN[C@@]1(C(=O)NCCC(N)=O)C[C@@H]3CN2Cc1cccc2ccccc12 [IF-384],10 to 30
10,CC(C)CNC(=O)[C@@]12C[C@@H]3CN(Cc4ccccc4)[C@@H]([C@@H]3CN1)[C@H]2Cc1ccccc1 (relative stereo) [IF-6],10 to 30
11,CC(C)CC1C2CNC3(C(=O)NCc4ccc(O)cc4)C(C2)CN(CC2CCCCC2)C13 (stereo not shown) [IB-581],10 to 30
12,O=C(O)CCNC(=O)[C@@]12C[C@@H]3CN(Cc4ccc(F)cc4)[C@@H]([C@@H]3CN1)[C@H]2Cc1cccc2ccccc12 [IF-417],10 to 30
13,CC(C)CCNC(=O)[C@]12NC[C@H]3C[C@H]1CN(CC1CCCCC1)[C@H]2[C@@H]3Cc1ccc(O)cc1 [IB-648],10 to 30
14,O=C(NCc1ccccc1)[C@]12NC[C@H]3C[C@H]1CN(CCO)[C@H]2[C@@H]3Cc1ccccc1 [IB-619],10 to 30
15,N=C(N)NCCCNC(=O)[C@@]12C[C@@H]3CN(Cc4cccc5ccccc45)[C@@H]([C@@H]3CN1)[C@H]2Cc1cccc2ccccc12 [IF-390],10 to 30
16,N=C(N)NCCC[C@@H]1[C@H]2CN[C@@]3(C(=O)NCCc4ccccc4)[C@@H](C2)CN(Cc2ccccc2)[C@@H]13 [IB-247],10 to 30
17,CC(C)C[C@@H]1[C@H]2CN[C@@]3(C(=O)NCCc4ccccc4)[C@@H](C2)CN(CC(N)=O)[C@@H]13 [IB-86],10 to 30
18,O=C(O)CCN1CC2CC3CNC2(C(=O)NCc2ccc(O)cc2)C1C3CCc1ccccc1 (stereo not shown) [IB-515],10 to 30
19,CC(C)CCN1C[C@H]2C[C@]3(C(=O)NCc4cccc5ccccc45)NC[C@H]2[C@H]1[C@H]3Cc1ccc(O)cc1 [IF-706],< 5
20,CC(C)C[C@@H]1[C@H]2CN[C@@]3(C(=O)NCc4ccccc4)[C@@H](C2)CN(Cc2ccc(N(C)C)cc2)[C@@H]13 [IB-873],5 to 10
21,CC(C)CC[C@@H]1[C@@H]2[C@@H]3CN[C@@]1(C(=O)NCc1cccc4ccccc14)C[C@@H]3CN2CCC(=O)O [IF-422],10 to 30
22,CCCCCCNC(=O)C12NCC3CC1CN(Cc1ccccc1)C2C3Cc1ccccc1 (stereo not shown) [IB-562],10 to 30
23,CC(C)C[C@@H]1[C@H]2CN[C@@]3(C(=O)NCc4ccc5ccccc5c4)[C@@H](C2)CN(Cc2ccccc2)[C@@H]13 [IB-879],< 5

row,SMILES,IC50 [µM]
1,CC(C)CNC(=O)[C@@]12C[C@@H]3CN(Cc4ccc(F)cc4)[C@@H]([C@@H]3CN1)[C@H]2CC(N)=O [IF-262],< 5
2,CC(C)CC[C@@H]1[C@H]2CN[C@@]3(C(=O)NCCCNC(=N)N)[C@@H](C2)CN(Cc2ccc(F)cc2)[C@@H]13 [IB-369],10 to 30
3,CC(C)NC(=O)[C@@]12C[C@@H]3CN(Cc4ccc(F)cc4)[C@@H]([C@@H]3CN1)[C@H]2CCCNC(=N)N [IF-274],10 to 30
4,O=C(NCCc1ccccc1)[C@@]12C[C@@H]3CN(Cc4ccc(F)cc4)[C@@H]([C@@H]3CN1)[C@H]2Cc1ccccc1 (relative stereo) [IF-586],10 to 30
5,O=C(NCc1ccc(O)cc1)[C@@]12C[C@@H]3CN(CC4CCCCC4)[C@@H]([C@@H]3CN1)[C@H]2Cc1ccccc1 [IF-477],< 5
6,Cc1cccc(CNC(=O)[C@]23NC[C@@H]4C[C@H]2CN(CC(C)C)[C@H]3[C@@H]4Cc2ccccc2)c1 (relative stereo) [IB-15],10 to 30
7,O=C(NCCO)[C@]12NC[C@H]3C[C@H]1CN(Cc1ccccc1)[C@H]2[C@@H]3Cc1ccccc1 [IB-676],10 to 30
8,O=C(NCCO)[C@@]12C[C@@H]3CN(CCc4ccccc4)[C@@H]([C@@H]3CN1)[C@H]2Cc1cccc2ccccc12 [IF-612],10 to 30
9,Cc1ccc(CN2C[C@H]3C[C@@]4(C(=O)NCc5ccccc5)[C@H](CC(C)C)[C@@H]2[C@@H]3CN4C(=O)OCC(C)C)cc1 [IF-861],5 to 10
10,CCCCCCNC(=O)[C@@]12C[C@@H]3CN(Cc4ccccc4)[C@@H]([C@@H]3CN1)[C@H]2CCCNC(=N)N [IF-285],10 to 30
11,CCCCCCNC(=O)[C@@]12C[C@@H]3CN(CCC(C)C)[C@@H]([C@@H]3CN1)[C@H]2Cc1ccc(O)cc1 (relative stereo) [IF-583],< 5
12,CC(C)C[C@@H]1[C@H]2CN[C@@]3(C(=O)NCc4ccc(F)cc4)[C@@H](C2)CN(Cc2ccc(O)cc2)[C@@H]13 [IB-499],< 5
13,CC(C)CCNC(=O)C12NCC3CC1CN(Cc1ccc(O)cc1)C2C3Cc1ccccc1 (stereo not shown) [IB-574],10 to 30
14,O=C(O)CC[C@@H]1[C@H]2CN[C@@]3(C(=O)NCc4cccc5ccccc45)[C@@H](C2)CN(CC2CCCCC2)[C@@H]13 [IB-389],10 to 30
15,CC(C)C[C@@H]1[C@@H]2[C@@H]3CN[C@@]1(C(=O)NCc1cccc4ccccc14)C[C@@H]3CN2CC(C)C [IF-726],10 to 30
16,CC(C)C[C@@H]1[C@H]2CN[C@@]3(C(=O)NC(C)C)[C@@H](C2)CN(CCCNC(=N)N)[C@@H]13 [IB-176],10 to 30
17,CC(C)CC1C2CNC3(C(=O)NCCc4ccccc4)C(C2)CN(Cc2ccc(O)cc2)C13 (stereo not shown) [IB-540],10 to 30
18,CC(C)CCNC(=O)[C@@]12C[C@@H]3CN(CCCNC(=N)N)[C@@H]([C@@H]3CN1)[C@H]2Cc1cccc2ccccc12 [IF-356],10 to 30
19,O=C(NCc1cccc2ccccc12)[C@@]12C[C@@H]3CN(Cc4ccc(O)cc4)[C@@H]([C@@H]3CN1)[C@H]2Cc1cccc2ccccc12 [IF-779],10 to 30
20,CC(C)CCN1CC2CC3CNC2(C(=O)NCc2ccc(O)cc2)C1C3Cc1ccccc1 (stereo not shown) [IB-577],10 to 30
21,O=C(O)CC[C@@H]1[C@@H]2[C@@H]3CN[C@@]1(C(=O)NCc1ccc(O)cc1)C[C@@H]3CN2CC1CCCCC1 [IF-447],10 to 30
22,CCOc1ccc(CN2CC3CC4(C(=O)NCc5ccccc5)N=CC3C2C4CC(C)C)cc1 (stereo not shown) [IIF-97],10 to 30
23,CC(C)C[C@@H]1[C@@H]2[C@@H]3CN[C@@]1(C(=O)NCc1cccc4ccccc14)C[C@@H]3CN2Cc1ccccc1 [IF-837],5 to 10

row,SMILES,IC50 [µM]
1,CC(C)CC1C2C=NC3(C(=O)NCc4ccccc4)C(C2)CN(Cc2ccc(C(C)(C)C)cc2)C13 (stereo not shown) [IIB-95],5 to 10
2,CC(C)C[C@@H]1[C@@H]2[C@@H]3CN[C@@]1(C(=O)NCc1ccc4ccccc4c1)C[C@@H]3CN2Cc1ccccc1 [IF-854],5 to 10
3,NC(=O)CN1C[C@@H]2C[C@@H]3CN[C@]2(C(=O)NCc2ccc(F)cc2)[C@@H]1[C@@H]3Cc1cccc2ccccc12 [IB-96],10 to 30
4,CC(C)C[C@@H]1[C@H]2CN[C@@]3(C(=O)NCc4ccc(O)cc4)[C@@H](C2)CN(Cc2ccccc2)[C@@H]13 [IB-464],< 5
5,CC(C)C[C@@H]1[C@H]2CN[C@@]3(C(=O)NCc4ccccc4)[C@@H](C2)CN(Cc2ccc(C(C)(C)C)cc2)[C@@H]13 [IB-874],5 to 10
6,O=C(NCc1cccc2ccccc12)[C@]12NC[C@H]3C[C@H]1CN(Cc1cccc4ccccc14)[C@H]2[C@@H]3CCc1ccccc1 [IB-804],< 5
7,O=C(NCc1ccc(O)cc1)C12NCC3CC1CN(Cc1ccc(F)cc1)C2C3Cc1ccccc1 (stereo not shown) [IB-583],10 to 30
8,CC(C)CCC1C2C=NC3(C(=O)NCc4ccccc4)C(C2)CN(Cc2ccc(O)cc2)C13 (stereo not shown) [IIB-101],5 to 10
9,CC(C)CC[C@@H]1[C@@H]2[C@@H]3CN[C@@]1(C(=O)NCc1ccccc1)C[C@@H]3CN2Cc1ccc(F)cc1 [IF-743],10 to 30
10,CC(C)CCN1C[C@@H]2C[C@@H]3CN[C@]2(C(=O)NCc2cccc4ccccc24)[C@@H]1[C@@H]3CO [IB-426],< 5
11,CC(C)CC[C@@H]1[C@@H]2[C@@H]3CN[C@@]1(C(=O)NCc1ccc(O)cc1)C[C@@H]3CN2Cc1ccccc1 [IF-493],< 5
12,NC(=O)CN1C[C@H]2C[C@]3(C(=O)NCCc4ccccc4)NC[C@H]2[C@H]1[C@H]3Cc1cccc2ccccc12 (relative stereo) [IF-90],10 to 30
13,CC(C)CN1C[C@@H]2C[C@@H]3CN[C@]2(C(=O)NCc2ccccc2)[C@@H]1[C@@H]3Cc1ccc(O)cc1 [IB-783],10 to 30
14,CC(C)CCC1C2C3C=NC1(C(=O)NCc1ccccc1)CC3CN2Cc1ccc(O)cc1 (stereo not shown) [IIF-101],5 to 10
15,CC(C)C[C@@H]1[C@H]2CN[C@@]3(C(=O)NCc4cccc(O)c4)[C@@H](C2)CN(Cc2ccc(N(C)C)cc2)[C@@H]13 (relative stereo) [IB-891],10 to 30
16,O=C(NCc1ccc(F)cc1)C12NCC3CC1CN(Cc1ccccc1)C2C3CCc1ccccc1 (stereo not shown) [IB-568],10 to 30
17,CCCCCCNC(=O)[C@]12NC[C@H]3C[C@H]1CN(CCc1ccccc1)[C@H]2[C@@H]3CCCNC(=N)N [IB-256],10 to 30
18,CCCCCCNC(=O)[C@]12NC[C@H]3C[C@H]1CN(CCO)[C@H]2[C@@H]3CC(C)C [IB-477],< 5
19,CC(C)C[C@@H]1[C@@H]2[C@@H]3CN[C@@]1(C(=O)NCCc1ccccc1)C[C@@H]3CN2CC1CCCCC1 [IF-711],10 to 30
20,NC(=O)C[C@@H]1[C@@H]2[C@@H]3CN[C@@]1(C(=O)NCCc1ccccc1)C[C@@H]3CN2CC1CCCCC1 [IF-251],10 to 30
21,CC(C)CCNC(=O)[C@@]12C[C@@H]3CN(Cc4ccc(F)cc4)[C@@H]([C@@H]3CN1)[C@H]2CC(C)C (relative stereo) [IF-585],< 5
22,CC(C)CC1C2C=NC3(C(=O)NCc4ccccc4)C(C2)CN(Cc2ccc(N(C)C)cc2)C13 (stereo not shown) [IIB-94],5 to 10

# Same assay, conditions: read-out: IC50
row,SMILES,IC50 [µM]
1,CC(C)CNC(=O)[C@@]12C[C@@H]3CN(Cc4ccccc4)[C@@H]([C@@H]3CN1)[C@H]2Cc1ccccc1 (relative stereo) [IF-6],16.3
2,Cc1cccc(CNC(=O)[C@]23NC[C@@H]4C[C@H]2CN(CC(C)C)[C@H]3[C@@H]4Cc2ccccc2)c1 (relative stereo) [IB-15],15.9
